One series has as its system wild-type C. elegans. The class given is in vivo, Caenorhabditis elegans.
For series [1], the system named is C. elegans. Nature of the series: Visual assay on tribendimidine, levamisole or pyrantel plates. To be noted: tribendimidine and levamisole plates 100 μg/ml, pyrantel 100 mM stock 1:50 in agar.
Method: Tribendimidine plates: stock solution (4 mg/ml) in water was prepared and added into standard C. elegans NG agar media (2.5 ml/100 ml) to a final concentration of 100 μg/ml. The mixture was poured into 35 mm plates (4 ml/plate). The plates were stored up to one week at 4° C. The plates were spread with OP50, a laboratory strain of E. coli commonly used as a food source for C. elegans. Resistant=good health and motility; susceptible=contracted, pale color, move slowly.
The test system of series [2] is C. elegans. Briefly: Developmental assay on Cry14A dose response plates +/- levamisole. The class given is in vivo, Caenorhabditis elegans. The settings on record: N2 wild-type, levamisole 0.75 μg/ml. The procedure: Similar experiments with a strain that produces Cry14A, alone and in combination with levamisole were performed. […] The Bt strain used in these experiments expressed Cry14A and two insecticidal Cry proteins (Cry34A and Cry35A) that are not expected to affect nematodes. […] To confirm this conclusion, an independent test of synergy between levamisole and Cry14A was carried out. In these experiments, N2 wild-type worms were plated onto Cry14A plates+/−levamisole.

The subject of series [3] is C. elegans. Nature of the series: whole plant or invertebrate. To be noted: for LC50: 6 days at 25° C.; for viability of trb mutant nematodes at concentrations where most or all wild-type nematodes were dead: tribendimidine: trb-1 to trb-4, 100 μg/ml and greater, levamisole: trb-1, trb-2, trb-4, 1000 μM or greater. The procedure: LC50 assays determine the inhibitory concentration at which 50% of the nematodes are dead under certain conditions as calculated using the PROBIT algorithm. LC50 assays start with wild-type (N2) L4 nematodes. To get L4 nematodes, synchronous L1-staged nematodes (as per developmental assay) were plated onto OP50-seeded ENG plates (see below) and put at 20° for 44 h. The now L4-staged larvae were then washed off with water, spun down at 1800 rpm for 40 seconds, re-suspended with SS Media, spun again, and re-suspended in special SS Media to a concentration of 4 nematodes/μl. The assay was set up in a 48-well microtiter plate. Each well contained: 5 μl L4 nematodes (˜20 total), 40 μl of OP50 bacteria as a food source (see below for preparation), 20 μl of tribendimidine (prepared as below), 5 μl of FUdR (8 mM stock; see below), and SS Medium for a total of 200 μl. Each well was set up in triplicate. The plates were wrapped in moist paper towels, placed in a covered plastic box, and incubated at 25° C. for 6 days. The plates were then removed from the incubator and the nematodes transferred with a glass pipette into the well of a spot glass. Each nematode was then scored for dead or alive as follows. Using a thin platinum wire, each nematode was touched to see if it moved within 10 seconds of being touched. If it moved, it was scored as alive. If not, the touch was repeated a second time. If it moved after the second touch, it was scored as alive. […] The number of alive and dead nematodes was tallied for each well. The data from triplicate wells were combined into a single data point. The experiment was repeated for a total of three times on three different days (so a total of 9 wells per data point).
A tribendimidine stock solution was prepared at 4 mg/ml at 1% DMSO in SS Media (final concentration in the well will be 0.1% DMSO). 1% DMSO in SS Media was used as a dilutant to set up serial dilutions. For example, tube 1 contained 160 μl of 4 mg/ml Trib in 1% DMSO. Tube 2 contained 80 μl of the solution in Tube 1, diluted with 80 μl 1% DMSO (1:1 dilution; tube 2). Tube 3 contained 80 μl of the solution from Tube 2, diluted with 80 microliters 1% DMSO, etc. . . .
The trb mutant nematodes were isolated in the forward genetic screen for tribendimidine resistance described above. The LC50 assay was performed as previously described. A levamisole stock solution (100 mM stock) was prepared in water. Dilutions (2-fold) were made in SS Media accordingly such that 20 μl aliquots were added per well to give rise to the desired concentration.

The subject of series [4] is C. elegans. Briefly: Brood size assay. The class given is in vivo, Caenorhabditis elegans. The settings on record: bre-5 mutant vs wild-type, 200 μg/ml tribendimidine, P<0.01. As to the method: L4 staged worms were used. One worm was picked up with an eyelash pick and placed in SS Media in a 48-well plate. […] The total volume was 200 μl. Each drug concentration was repeated in triplicate. The plates were incubated for 64 h at 25° C. The progeny were then transferred out of the well with a pipette onto an empty NG agar plate for counting. The experiment was repeated a total of three times.

Series [5] relates to C. elegans. Nature of the series: whole plant or invertebrate. To be noted: for IC50: Caenorhabditis elegans, 60 h. The class given is in vivo, Caenorhabditis elegans.
Setting [6] is: combination of Cry5B and nAChR agonist, 1:1 ratio (μg/ml).
Where [7] appears, read: combination of Cry6A and levamisole.
[8] abbreviates: combination of Cry21A and levamisole, 3 days at 20° C.
[9] abbreviates: combination of levamisole and Bt strain producing Cry14A (also Cry34A, Cry35A).
The mark [10] stands for this setting: trb-1, trb-2, trb-3, trb-4 mutants.
The mark [11] stands for this setting: Caenorhabditis elegans, 144 h, bre-2 mutant (Cry5B-resistant).
Setting [12] is: Caenorhabditis elegans, 144 h, bre-5 (ye17) mutant (Cry5B-resistant).
The mark [13] stands for this setting: Caenorhabditis elegans, 144 h, wild-type (N2), L4 nematodes.

SMILES strings stand for the structures. Values after ≈ are worked out from the molar mass of the structure shown. Values joined by “and” are separate entries in the source; they are usually repeats but may differ in a detail not shown here. Equal entries are not always repeated. Where two headings read alike, the source gives them in different places.

The values that follow come from patent US8809268B2, “Combination therapy to combat helminth resistance” (The Regents of The University of California, priority 2008, dated 2014).

In general, LC50 refers to the concentration that kills 50% of the test population. The low end stands for greater toxicity, the high end for lower toxicity.

Take `c1ccc([C@H]2CN3CCSC3=N2)cc1` [Levamisole]: the “synergism factor (CI value) at ED75” value in the series on wild-type C. elegans (setting [6]) came to 0.29; in the series with wild-type C. elegans (setting [7]), 0.96; with wild-type C. elegans (setting [8]), 0.52; in the series with wild-type C. elegans (setting [9]) it was 0.60. In addition, the “synergism factor (CI value) at ED90” value amounted to 0.22 in the series on wild-type C. elegans (setting [6]), 0.86 in the series on wild-type C. elegans (setting [7]), 0.42 with wild-type C. elegans (setting [8]) and 0.50 in the series on wild-type C. elegans (setting [9]). In addition, the “synergism factor (CI value) at ED95” value in the series on wild-type C. elegans (setting [6]) is recorded as 0.19; with wild-type C. elegans (setting [7]) it was 0.82; in the series on wild-type C. elegans (setting [8]) it was 0.37; with wild-type C. elegans (setting [9]), 0.44. Moreover, the “appearance of nematodes on drug plates” value in the series on C. elegans [1] (setting [10]) is listed as “resistant”; in the series with C. elegans [1] (wild-type) it was “sick”. Moreover, the “effect of levamisole alone on worm development” value in the series on C. elegans [2] is on record as “does not inhibit worm development”. For the same compound, the LC50 was found to be 1.16 µg/mL (≈ 5.68 µM) in the series on C. elegans [3] (setting [11]); 9.99 µg/mL (≈ 48.9 µM) in the series on C. elegans [3] (setting [12]); 19.6 µg/mL (≈ 96 µM) with C. elegans [3] (setting [13]); 11.712 µg/mL (≈ 57.3 µM) in the series on C. elegans [3] (wild-type (N2), L4 nematodes). Also, the “% alive” value in the series with C. elegans [3] (trb-3(ye494) nematodes at 1 mM (1000 μM) levamisole) is reported as > 40%. Besides, the “viability of trb mutant nematodes at concentrations where most or all wild-type nematodes were dead” value in the series with C. elegans [3] was “mostly or all alive”.
`CN1CCCN=C1/C=C/c1cccs1` [Pyrantel]: the “synergism factor (CI value) at ED75” value in the series with wild-type C. elegans (setting [6]) is reported as 0.74. Also, the “synergism factor (CI value) at ED90” value in the series on wild-type C. elegans (setting [6]) is listed as 0.73. In addition, the “synergism factor (CI value) at ED95” value in the series with wild-type C. elegans (setting [6]) is 0.72. The “appearance of nematodes on drug plates” value with C. elegans [1] (setting [10]) is on record as “resistant”; in the series on C. elegans [1] (wild-type), “sick”. Besides, the LC50 with C. elegans [3] (setting [11]) is 10.9 µg/mL (≈ 52.7 µM); in the series with C. elegans [3] (setting [12]) it was 114 µg/mL (≈ 553 µM); with C. elegans [3] (setting [13]) it was 502 µg/mL (≈ 2430 µM); with C. elegans [3] (wild-type (N2), L4 nematodes) it was 594.956 µg/mL (≈ 2880 µM).
With `C/C(=N\c1ccc(/N=C/c2ccc(/C=N/c3ccc(/N=C(\C)N(C)C)cc3)cc2)cc1)N(C)C` [Tribendimidine], the “synergism factor (CI value) at ED75” value in the series on wild-type C. elegans (setting [6]) was determined as 0.28. Further, in the series with wild-type C. elegans (setting [6]), the “synergism factor (CI value) at ED90” value is 0.19. In addition, the “synergism factor (CI value) at ED95” value in the series with wild-type C. elegans (setting [6]) is 0.14. The “appearance of nematodes on drug plates” value is on record as “resistant” in the series with C. elegans [1] (setting [10]) and “sick” in the series with C. elegans [1] (wild-type). In addition, in the series with C. elegans [4], the “brood size, mutant relative to wild-type” value was “reduced significantly”. The LC50 in the series with C. elegans [3] (setting [11]) is 7.27 µg/mL (≈ 16.1 µM); in the series on C. elegans [3] (setting [12]), 12.3 µg/mL (≈ 27.2 µM); in the series with C. elegans [3] (setting [13]), 54.4 µg/mL (≈ 120 µM); with C. elegans [3] (wild-type (N2), L4 nematodes) it was 58.372 µg/mL and 57.38 µg/mL. The “response of levamisole-resistant mutants in LC50 assay” value in the series on C. elegans [3] (mutants in 11 levamisole resistance genes (lev-1, lev-8, lev-9, lev-10, lev-11, unc-22, unc-29, unc-38, unc-50, unc-63, unc-74), high concentrations) is “resistant to tribendimidine”. Further, in the series with C. elegans [3], the “viability of trb mutant nematodes at concentrations where most or all wild-type nematodes were dead” value is given as “mostly or all alive”. The IC50 in the series on C. elegans [5] (read-out: IC50 (inhibitory concentration at which 50% of the larvae are unable to complete development), wild-type (N2), L1 larvae, 60 h at 20° C.) amounted to 18.4 µg/mL (≈ 40.6 µM); in the series with C. elegans [5] (read-out: IC50 (larval development), bre-5 (ye17) mutant (Cry5B-resistant), 60 h at 20° C.), 13.2 µg/mL (≈ 29.1 µM). Besides, the “IC50 (inhibitory concentration at which 50% of the larvae are unable to complete development)” value with C. elegans [5] (wild-type (N2), L1 larvae, 60 h at 20° C.) amounted to 14.718 µg/mL.
